Reference: patent US20220339134A1, “VERY-LONG-CHAIN POLYUNSATURATED FATTY ACIDS, ELOVANOID HYDROXYLATED DERIVATIVES, AND METHODS OF USE” (Board of Supervisors of Louisiana State University and …, priority 2019, published 2022)

Test system: RPE and PRC
Experiment: Subretinal injection of OAβ in WT mice +/- ELVs (RPE flat mount, OCT, qPCR, Western blot)
Assay type: in vivo
Details: for OAβ-activated senescence program (p16INK4a, MMP1, p53, p21, p27, Il-6, SASP secretome) followed by RPE and PRC demise: summary of mouse and human RPE data
Source text: (A) In vivo experimental design: 6-month-old C57BL/6J WT mice were divided into 7 groups (n=12/group): non-injected, PBS, OAβ only, OAβ+ELV-N-32, OAβ+ELV-N-34, ELV-N-32 only and ELV-N-34 only. On day 3, mRNA were isolated for Real-Time PCR. On day 7, mice were subjected to OCT and then eyes enucleated and processed for whole mount RPE staining and Western blots. (B) Whole flat mount of RPE with tight junction marker, Zonula occludens-1 (ZO-1) antibody. OAβ disrupted RPE morphology. (C) OAβ effects on retina and RPE by OCT. (D) Thickness of PRC layer was thinner in OAβ injected group. (E) RPE gene expression after Oaβ (1-42) injection and treatment with ELVs. (E-G) Gene expression in the same functional group were plotted. Senescence- and AMD-related genes (E), and collagenases, gelatinase, stromelysins and others matrix metalloproteinases (MMP) (F) and autophagy (G). (H) p16INK4a, a key marker for senescence, western blots of RPE. (I) Retina apoptosis gene expression after OAβ (1-42) injection and treatment with ELVs. (*P<0.05, student t-test).
ELVs restore RPE morphology and reduce gene expression after subretinal injection of OAβ in WT mice. (A) Mice were divided into 7 groups: non-injected, PBS, OAβ only, OAβ+ELV-N-32, OAβ+ELV-N-34, ELV-N-32 only and ELV-N-34 only. On day 3, mRNA were isolated for RT-PCR. On day 7, mice were subjected to OCT and then eyes were enucleated and processed to whole mount RPE staining and Western blot. (B) Whole flat mount of RPE. OAβ disrupted RPE morphology. However, RPE were less damage in the ELVs treatment group as well as PBS, ELVs alone did non induce changes. (C) Evaluation the OAβ effects on retina and RPE by OCT. (D) The thickness of PRC was thin in the OAβ injected group. OAβ cause the cell death of PRC, as the thinner in OCT measurement. (E) RPE gene expression after OAβ (1-42) injection and treatment with ELVs. 3 days after injection, the RNAs from RPE were isolated, reverse transcribed into cDNA and subjected to RT-PCR with different primers. Genes in the same functional group were plotted in the same chart, including senescence- and AMD-related genes (E), and collagenases, gelatinase, stromelysins and others matrix metalloproteinases (MMP) (F) and autophagy (G). (H) p16INK4a western blots of RPE/Choroid. […] (I) Retina gene expression after OAβ (1-42) injection and treatment with ELVs. OAβ activates apoptosis genes in the retina. […] (*P<0.05, using student t-test comparison).
All animal experiments were performed according to ARVO Statement for the Use of Animals in Ophthalmic and Vision Research, and the protocol was approved by LSU Health New Orleans' Institutional Animal Care and Use Committee (IACUC). 6-month-old 5×FAD mice (stock number: 34848-JAX, The Jackson Laboratory, Bar Harbor, Me., USA), co-overexpress FAD mutant forms of human amyloid precursor protein (the Swedish mutation: K670N, M671L; the Florida mutation: I716V; and the London mutation: V7171) and presenilin 1 (PS1, encoded by Psen1: M146L, L286V) transgenes under transcriptional control of the neuron-specific mouse Thy1 promoter. 5×FAD mice were hemizygotes with respect to the transgenes and non-transgenic WT littermates. Genotyping was performed by PCR of tail DNA. All analyses were carried out blind with respect to the mice genotype. For the subretinal injection, 6-month-old C57BL/6J mice were anesthetized by an intraperitoneal injection of ketamine/xylazine, pupils dilated with 1.0% tropicamide (Akorn, Ill., USA); and 0.5% Proparacaine Hydrochloride (Akorn) was applied for topical anesthesia. Eyes were punctured with a 30-gauge needle between the corneoscleral junction and the ora serrata into the vitreous cavity without disturbing the lens. Compounds were delivered to the subretinal region using a 33-gauge blunt needle attached to a 5p.1 Hamilton syringe (Hamilton Company, Reno, Nev., USA) under a dissecting microscope. Non-injected mice were used as negative control while the PBS injected mice were used for sham. […]

[1] = co-injected with OAβ subretinally, then topical ELV, day 7

CC/C=C\C[C@H](O)\C=C/C=C/C=C/[C@H](O)C/C=C\C/C=C\CCCCCCCCCCCCCCC(=O)O [ELV-N-34]
PRC degeneration / ONL after ELV injected alone (ELV alone, no OAβ, subretinal): did not yield PRC degeneration | PRC protection (PRC layer, OCT) [1]: protection of PRC | RPE morphology (ZO-1 whole flat mount) [1]: restoration of RPE morphology | p16INK4a protein (western blot of RPE/Choroid) (elevated by OAβ injection, day 7): down regulated | OAβ-activated senescence program (p16INK4a, MMP1, p53, p21, p27, Il-6, SASP secretome) followed by RPE and PRC demise: blunt these events and elicit protection to both cells | OAβ-activated senescence program (p16INK4a, MMP1, p53, p21, p27, Il-6, SASP secretome) followed by RPE and PRC demise (listed as ELV 34): downregulatory mediators of OAβ-evoked senescence | OAβ-activated senescence program (p16INK4a, MMP1, p53, p21, p27, Il-6, SASP secretome) followed by RPE and PRC demise (listed as elovanoid 34): blunt these events and elicits protection
